This passage reports IC50 results from patent publication US20240400518A1, “SOS1 INHIBITOR AND USE THEREOF” (KANAPH THERAPEUTICS INC., priority 2021, published 2024).

For one test, the target named is T1, KRAS^G12C::SOS1 (Homo sapiens, UniProt Q07889).
T1 construct: purchased CISBIO, FRANCE 64KRASG12PEH
T1 sequence (Q07889 1-1333): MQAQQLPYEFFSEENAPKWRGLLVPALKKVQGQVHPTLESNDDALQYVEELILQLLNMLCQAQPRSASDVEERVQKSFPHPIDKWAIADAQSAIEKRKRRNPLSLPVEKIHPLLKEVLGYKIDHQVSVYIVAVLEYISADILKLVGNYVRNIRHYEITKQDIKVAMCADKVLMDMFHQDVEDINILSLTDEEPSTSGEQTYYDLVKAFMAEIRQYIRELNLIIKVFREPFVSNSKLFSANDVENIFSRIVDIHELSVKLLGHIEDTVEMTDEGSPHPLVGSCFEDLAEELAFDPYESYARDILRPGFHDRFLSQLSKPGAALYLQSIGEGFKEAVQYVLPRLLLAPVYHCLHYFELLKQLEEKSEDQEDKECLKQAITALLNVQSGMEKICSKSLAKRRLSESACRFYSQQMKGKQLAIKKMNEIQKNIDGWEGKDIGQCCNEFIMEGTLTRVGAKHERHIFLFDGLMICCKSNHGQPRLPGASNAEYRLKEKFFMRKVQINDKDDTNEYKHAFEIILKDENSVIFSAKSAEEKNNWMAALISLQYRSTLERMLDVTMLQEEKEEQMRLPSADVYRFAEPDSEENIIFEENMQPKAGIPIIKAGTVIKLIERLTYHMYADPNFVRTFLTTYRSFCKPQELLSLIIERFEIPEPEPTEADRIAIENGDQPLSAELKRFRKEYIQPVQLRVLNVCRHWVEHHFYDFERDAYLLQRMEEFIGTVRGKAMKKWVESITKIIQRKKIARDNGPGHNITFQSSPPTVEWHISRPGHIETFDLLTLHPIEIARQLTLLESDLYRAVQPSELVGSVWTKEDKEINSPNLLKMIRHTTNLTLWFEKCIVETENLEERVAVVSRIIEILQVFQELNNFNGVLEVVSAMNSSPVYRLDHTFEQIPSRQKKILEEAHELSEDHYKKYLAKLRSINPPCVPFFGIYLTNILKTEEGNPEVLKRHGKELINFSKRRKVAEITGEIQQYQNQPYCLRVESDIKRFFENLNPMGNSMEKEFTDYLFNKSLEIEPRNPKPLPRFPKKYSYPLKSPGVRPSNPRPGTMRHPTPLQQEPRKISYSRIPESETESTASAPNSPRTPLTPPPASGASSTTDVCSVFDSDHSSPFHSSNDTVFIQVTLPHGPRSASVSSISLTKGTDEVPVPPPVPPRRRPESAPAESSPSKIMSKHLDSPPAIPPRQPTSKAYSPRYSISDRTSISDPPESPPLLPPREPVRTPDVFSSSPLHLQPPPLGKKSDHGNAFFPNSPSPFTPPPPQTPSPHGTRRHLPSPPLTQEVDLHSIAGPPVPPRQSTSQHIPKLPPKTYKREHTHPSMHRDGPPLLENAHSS
Nature of the test: KRAS G12C::SOS1 protein-protein interaction (PPI) inhibition assay (HTRF binding kit). The note with it: max inhibitor concentration 3 μM, three replicates, IC50 class. As to the method: Protein-protein interaction between SOS1 and KRAS^G12C was detected using KRAS G12C/SOS1 binding kit from CISBIO (64KRASG12PEH, CISBIO, FRANCE) according to the manufacturer's assay method. Briefly, the maximum concentration of an inhibitor sample was set to be 3 μM, and the inhibitor sample was diluted 7 times by 1/3, and samples having a total of 8 concentrations were prepared. In HTRF (Homogeneous Time-Resolved Fluorescence) exclusive 96-well low-volume white plate (66PL96005, CISBIO, FRANCE), 2 μL of an inhibitor sample prepared for each concentration, 5 μL of a mixed solution of Tag1 labeled KRAS^G12C protein and GTP diluted with the dilution solution provided by the manufacturer, and 5 μL of Tag2 labeled SOS1 protein were mixed, and added with 8 μL of a diluted solution where anti-Tag1 KRAS^G12CXL665 (HTRF acceptor) labeled antibody and anti-Tag2 SOS1 Terbium cryptate (HTRF donor) labeled antibody were mixed in an equal ratio and cultured at room temperature for 2 hours.
For orientation: TR-FRET usually uses a lanthanide donor and a delayed reading to cut background.

The target in a further test is T2, SOS1 (Homo sapiens, UniProt Q07889).
T2 construct: adding equal amounts of HIS—SOS1cat (160 nM; Cytoskeleton, US); His (N); purchased Cytoskeleton, US
T2 sequence (Q07889 564-1049 limits assumed): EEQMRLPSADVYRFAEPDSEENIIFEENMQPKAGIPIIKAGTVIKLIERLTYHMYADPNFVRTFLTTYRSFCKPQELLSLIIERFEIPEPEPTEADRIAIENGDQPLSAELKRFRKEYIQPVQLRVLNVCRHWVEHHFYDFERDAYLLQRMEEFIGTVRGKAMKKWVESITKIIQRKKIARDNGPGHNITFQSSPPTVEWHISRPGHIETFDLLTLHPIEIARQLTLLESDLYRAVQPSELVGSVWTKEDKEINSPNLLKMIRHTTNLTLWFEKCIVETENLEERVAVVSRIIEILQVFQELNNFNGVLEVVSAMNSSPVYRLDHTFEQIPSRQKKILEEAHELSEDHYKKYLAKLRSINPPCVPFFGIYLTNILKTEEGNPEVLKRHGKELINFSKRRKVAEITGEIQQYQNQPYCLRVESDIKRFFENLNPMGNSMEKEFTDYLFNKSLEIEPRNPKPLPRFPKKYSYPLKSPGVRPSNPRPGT
Description: SOS-catalyzed nucleotide exchange assay (HTRF, SOS1-mediated GTP loading of KRAS G12D). Conditions: GST-KRAS G12D, HIS-SOS1cat, IC50 class. The format is biochemical. On the procedure:
SOS1 activity was measured by SOS1-mediated GTP loading quantification of KRAS^G12D. GTP loaded KRAS^G12D was detected by HTRF (Homogeneous Time Resolved Fluorescence) using anti-GST terbium (Cisbio, France) as a donor and a fluorescence GTP analogue (EDA-GTP-DY-647P1, [DY-647P1 labeled 2′/3′-O-(2-aminoethyl-carbamoyl)guanosine-5′-triphosphate (Jena bioscience, Germany)]) as an acceptor.
Assay buffer was composed of 10 mM HEPES pH 7.4, 150 mM NaCl, 5 mM MgCl2, 1 mM DTT, 0.05% BSA Fraction V pH 7.0 (Sigma) and 0.0025% (v/v) Igepal (Sigma). KRAS^G12D working solution was prepared by adding equal amounts of GST-KRAS^G12D (100 nM) and anti-GST-terbium (2 nM; Cisbio, France) to the assay buffer and culturing on ice for 10 minutes. SOS1cat working solution was prepared by adding equal amounts of HIS—SOS1cat (160 nM; Cytoskeleton, US) and EDA-GTP-DY-647P1 (200 nM; Jena bioscience, Germany) to the assay buffer. Control solution was prepared by adding equal volumes of EDA-GTP-DY-647P1 and the assay buffer for normalization control to exclude GEF-independent GTP loading and background signals. In order to induce a reaction, 5 μL of the SOS1cat working solution or the control solution was injected into each well. 5 μL of a compound having various concentrations from 128 pM to 10 μM was added to wells containing the SOS1cat working solution and incubated at room temperature for 10 minutes to bind to SOS1.
10 μL of the KRAS^G12D solution was added to each well and incubated for 30 minutes at room temperature while shaking. HTRF was measured using a Thermo Varioskan (excitation 334 nm, emission 665 nm). The IC50 of each inhibitor was analyzed using Graphad Prism.

The term IC50 denotes the concentration at which inhibition is half-maximal.

Each structure is given as a SMILES string.

Consider `C[C@@H](NC(=O)c1ccc(=O)n(-c2cccc(-c3cnoc3)c2)n1)c1cc(N)cc(C(F)(F)F)c1` [Example 322, N-[(1R)-1-[3-amino-5-(trifluoromethyl)phenyl]ethyl]-1-(3-isoxazol-4-ylphenyl)-6-oxo-pyridazine-3-carboxamide], for which the IC50 on KRAS^G12C::SOS1 is < 1 µM. For `C[C@@H](NC(=O)c1ccc(=O)n(-c2ccc(-c3ccccc3)cc2)n1)c1cc(N)cc(C(F)(F)F)c1` [Example 24], at SOS1, the IC50 was in the range of 1 to 10 µM. In the case of `C[C@@H](NC(=O)c1ccc(=O)n(-c2cccc(-c3cnnn3C)c2)n1)c1cccc(C(F)(F)CO)c1F` [Example 370, N-[(1R)-1-[3-(1,1-difluoro-2-hydroxy-ethyl)-2-fluoro-phenyl]ethyl]-1-[3-(3-methyltriazol-4-yl)phenyl]-6-oxo-pyridazine-3-carboxamide], the IC50 on KRAS^G12C::SOS1 is < 1 µM. For `Cc1cnnn1-c1cccc(-n2cc(C(=O)N[C@H](C)c3cc(N)cc(C(F)(F)F)c3)ccc2=O)c1` [Example 377, N-[(1R)-1-[3-amino-5-(trifluoromethyl)phenyl]ethyl]-1-[3-(5-methyltriazol-1-yl)phenyl]-6-oxo-pyridine-3-carboxamide], on KRAS^G12C::SOS1, the IC50 is < 1 µM. Regarding `[2H]C([2H])([2H])n1nncc1-c1cccc(-n2nc(C(=O)N[C@H](C)c3cccc(C(F)(F)CO)c3F)ccc2=O)c1` [Example 393, N-[(1R)-1-[3-(1,1-difluoro-2-hydroxy-ethyl)-2-fluoro-phenyl]ethyl]-6-oxo-1-[3-[3-(trideuteriomethyl)triazol-4-yl]phenyl]pyridazine-3-carboxamide], the IC50 on KRAS^G12C::SOS1 was < 1 µM. Same read-out and setting: in the case of `C[C@@H](NC(=O)c1ccc(=O)n(-c2cncc(-c3cnnn3C)c2)n1)c1cc(N)cc(C(F)(F)F)c1` [Example 392, N-[(1R)-1-[3-amino-5-(trifluoromethyl)phenyl]ethyl]-1-[5-(3-methyltriazol-4-yl)-3-pyridyl]-6-oxo-pyridazine-3-carboxamide] it was < 1 µM.

Turning to `C[C@@H](NC(=O)c1ccc(=O)n(-c2cccc(C(=O)O)c2)n1)c1cc(N)cc(C(F)(F)F)c1` [Example 249, 3-(3-{[(1R)-1-[3-amino-5-(trifluoromethyl)phenyl]ethyl]carbamoyl}-6-oxo-1,6-dihydropyridazin-1-yl)benzoic acid], the IC50 on KRAS^G12C::SOS1 is < 1 µM. The same measure, in the same setting: then `C[C@@H](NC(=O)c1ccc(=O)n(-c2ccc(F)c(-c3cnnn3C)c2)n1)c1cccc(C(F)(F)CO)c1F` [Example 390], with < 1 µM. Still for that read-out and setting: in the case of `C[C@@H](NC(=O)c1ccc(=O)n(-c2cc(-c3cnnn3C)ccc2F)n1)c1cc(N)cc(C(F)(F)F)c1` [Example 371, N-[(1R)-1-[3-amino-5-(trifluoromethyl)phenyl]ethyl]-1-[2-fluoro-5-(3-methyltriazol-4-yl)phenyl]-6-oxo-pyridazine-3-carboxamide] it was < 1 µM; in that of `C[C@@H](NC(=O)c1ccc(=O)n(-c2cc(F)cc(-c3cnnn3C)c2)n1)c1cc(N)cc(C(F)(F)F)c1` [Example 391, N-[(1R)-1-[3-amino-5-(trifluoromethyl)phenyl]ethyl]-1-[3-fluoro-5-(3-methyltriazol-4-yl)phenyl]-6-oxo-pyridazine-3-carboxamide], < 1 µM; in that of `C[C@@H](NC(=O)c1ccc(=O)n(-c2ccccc2F)n1)c1ccc(Br)s1` [Example 265, N-[(1R)-1-(5-bromo-2-thienyl)ethyl]-1-(2-fluorophenyl)-6-oxo-pyridazine-3-carboxamide], < 1 µM. Consider `Cc1c([C@@H](C)NC(=O)c2ccc(=O)n(-c3ccccc3F)n2)cc(N)cc1C(F)(F)F` [Example 244, N-[(1R)-1-[5-amino-2-methyl-3-(trifluoromethyl)phenyl]ethyl]-1-(2-fluorophenyl)-6-oxo-pyridazine-3-carboxamide], for which the IC50 at KRAS^G12C::SOS1 is < 1 µM.

On KRAS^G12C::SOS1, `C[C@@H](NC(=O)c1ccc(=O)n(-c2cccc(-c3ccccc3)c2)n1)c1cc(N)cc(C(F)(F)F)c1` [Example 212] returned an IC50 of 1 to 10 µM. The same measure, in the same setting: in the case of `C[C@@H](NC(=O)c1ccc(=O)n(-c2ccc(F)c(-c3cnnn3C)c2)n1)c1cc(N)cc(C(F)(F)F)c1` [Example 389, N-[(1R)-1-[3-amino-5-(trifluoromethyl)phenyl]ethyl]-1-[4-fluoro-3-(3-methyltriazol-4-yl)phenyl]-6-oxo-pyridazine-3-carboxamide] it was < 1 µM. For the molecule `C[C@@H](NC(=O)c1ccc(=O)n(-c2cccc(C(C)(C)O)c2)n1)c1cc(N)cc(C(F)(F)F)c1` [Example 171], the IC50 on KRAS^G12C::SOS1 was < 1 µM.

On to `C[C@@H](NC(=O)c1ccc(=O)n(-c2ccncc2F)n1)c1cc(N)cc(C(F)(F)F)c1` [Example 191], for which the IC50 on KRAS^G12C::SOS1 was < 1 µM. Still for that read-out and setting: in the case of `CNCc1ccc(Cl)cc1-c1ccc([C@@H](C)NC(=O)c2ccc(=O)n(-c3cccnc3)c2)s1` [Example 284] it was < 1 µM. Same read-out and setting: in the case of `Cc1cnnn1-c1cccc(-n2nc(C(=O)N[C@H](C)c3cc(N)cc(C(F)(F)F)c3)ccc2=O)c1` [Example 378, N-[(1R)-1-[3-amino-5-(trifluoromethyl)phenyl]ethyl]-1-[3-(5-methyltriazol-1-yl)phenyl]-6-oxo-pyridazine-3-carboxamide] it was < 1 µM.
